Experimental data: patent US11192916B2, “Pentacyclic triterpene compound and preparation method therefor, and pharmaceutical composition and use thereof” (SHANGHAI INSTITUTE OF MATERIA MEDICA, CHINESE ACADEMY OF …, priority 2017, dated 2021)

Assays:
Assay type in all cases: cell-based
[1] = target: T1, TGR5 (Homo sapiens, UniProt Q8TDU6); experiment: TGR5 agonist test, HTRF cAMP detection in HEK293 cells transiently transfected with TGR5; details: Table 2, TGR5 agonistic activity, HEK293 cells expressing TGR5, up to 100 μM, read-out: FXR (IC50/μM)
T1 construct: expressed in transfected cells; host or cells: HEK293
T1 sequence (Q8TDU6 1-330): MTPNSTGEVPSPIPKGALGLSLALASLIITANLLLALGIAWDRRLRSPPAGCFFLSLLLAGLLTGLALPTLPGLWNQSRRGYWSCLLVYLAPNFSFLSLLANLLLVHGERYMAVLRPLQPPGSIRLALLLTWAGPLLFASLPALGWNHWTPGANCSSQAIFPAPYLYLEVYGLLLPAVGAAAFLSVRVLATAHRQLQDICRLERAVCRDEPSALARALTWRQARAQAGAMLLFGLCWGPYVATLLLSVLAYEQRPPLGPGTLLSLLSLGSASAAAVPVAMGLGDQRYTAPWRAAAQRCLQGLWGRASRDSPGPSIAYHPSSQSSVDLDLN
From the text: HEK293 cells transiently transfected with TGR5 were stimulated with compounds, and then homogeneous time-resolved fluorescence (HTRF) was used to detect whether these compounds could agitate TGR5.
TGR5 is a bile acid membrane receptor and a member of the GPCR family. It regulates the metabolism of bile acids, lipids, and sugars. TGR5 is coupled to the Gs protein, and after activation, it further activates adenylate cyclase to produce a second messenger cAMP. HTRF is a method for detecting the content of cAMP and combines two techniques of fluorescence resonance energy transfer (FRET) and time-resolved fluorescence (TRF). […] FRET induces the acceptor to generate fluorescence, and Eu has a long fluorescence lifetime. TRF can distinguish the fluorescent signal by the acceptor from the fluorescent background. The fluorescent donor is bound to a cAMP-specific antibody, and cAMP is simultaneously labeled with a fluorescent acceptor. The donor and acceptor approach to each other through the antigen-antibody specific recognition reaction to generate FRET, and the cAMP produced by the cell competes with the labeled cAMP for antibody binding sites, resulting in the decrease of fluorescence intensity.
4.1. The test compound was prepared with 1× PBS into a solution having 2 times of the final concentration. The final concentration was 100 μM, 10 μM, 1 μM, 100 nM, 10 nM, 1 nM, 0.1 nM, DMSO (each well contains 1% DMSO).
4.2.2. The cell density was determined. At the same time, IBMX (final concentration of […]) was added into the serum-free culture medium, and the number of cells was 2000/5 μl/well.
4.2.3. 5 μl of the test compound and 5 μl of the cell suspension containing IBMX were added and mixed. A 384-well plate was sealed with a foil paper. The mixtures were protected from light and reacted at room temperature for […].
4.3.1 1 μl cAMP-d2 was diluted to 20 μl by using cAMP&cGMP conjugates & lysis buffer. 4.3.2 1 μl anti-cAMP-Cryptate was diluted to 20 μl by using cAMP&cGMP conjugates&lysis buffer.
4.3.3 After 30 minutes, 5 μl (1.3.1) and 5 μl (1.3.2) were added and a 384-well plate was sealed with a foil paper. The mixtures were protected from light and reacted at room temperature.
4.4. After 60 minutes, the values were detected by Envision 2101 microplate reader (PerkinElmer).

[2] = target: T2, FXR (Homo sapiens, UniProt Q96RI1); experiment: FXR antagonist test, luciferase reporter gene experiment against agonist GW4064; details: antagonistic activity; HEK293 cells co-transfected with LBD(hFXR)-pbind and luciferase reporter; GW4064 300 nM
T2 sequence (Q96RI1 262-486 limits assumed): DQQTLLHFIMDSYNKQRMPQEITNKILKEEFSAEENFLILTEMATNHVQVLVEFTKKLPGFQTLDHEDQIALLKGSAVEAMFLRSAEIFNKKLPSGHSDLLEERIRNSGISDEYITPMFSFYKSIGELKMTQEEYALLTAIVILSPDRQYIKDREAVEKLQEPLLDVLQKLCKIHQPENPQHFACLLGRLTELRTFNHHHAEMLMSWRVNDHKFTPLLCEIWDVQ
From the text: The antagonistic activity of the compound against FXR was detected by the reporter gene experiment. FXR is a nuclear receptor activated by bile acids and has regulatory effects on glucose metabolism and lipid metabolism in the body. After FXR is activated, it can initiate the expression of a series of genes and respond to external stimuli. The Luciferase reporter gene system is a reporting system for detecting firefly luciferase activity. Luciferase can catalyze the oxidation of Luciferin, a fluorescent substrate, and cause emition of biological fluorescence at the same time. The amount of luciferase expression can be determined by detecting the fluorescence intensity. In this experiment, the test compound may target FXR, and GW4064 is a known FXR agonist, which initiates the expression of a series of genes after binding to the FXR ligand-binding domain. Therefore, the reporter gene experiment was used. Two plasmids, LBD (hFXR)-pbind and PGL4.31-Luc were co-transfected into HEK293 cells to express the FXR ligand-binding domain in the cells. Two test compounds were separately added and a blank control group was set, and then an agonist was added. If the compound has affinity for FXR, it will compete with the agonist for binding to the FXR ligand-binding domain and affect the expression of luciferase in pGL4.31-Luc. The Envision2101 multi-well microplate reader was used to detect the chemiluminescence count value, and the effect of the test compound on FXR activity was judged based on the fluorescence intensity. 2 μg of the chimeric plasmid LBD(hFXR)-pbind and 2 μg of Luciferase reporter plasmid were co-transfected into 2×10^6 HEK293 cells and inoculated in white opaque 96-well plates. After 24 h, the culture medium was discarded, and the test compound (diluted with serum-free culture medium, containing 1% DMSO) was added and incubated for 1 h. Then FXR agonist GW4064 (300 nM) was added to stimulate for 6 h, and finally luciferase substrate was added and shaken to lyse. Luminescence was measured on the Envision 2104 microplate reader.

[3] = system: HEK293 cells; experiment: CCK-8 cytotoxicity test; details: for CCK-8 Assay (30 μM): cytotoxicity on HEK293 cells at 30 μM; for CCK-8 Assay (100 μM): cytotoxicity on HEK293 cells at 100 μM
Description: The cytotoxicity of the compounds was evaluated by using CCK-8 experiment. CCK-8 is an indicator of redox reaction. In the presence of the electron carrier 1-Methoxy PMS, dehydrogenase in living cells is used to catalyze the tetrazolium salt WST-8 to form formazan dye. The production amount of formazan dye has a linear relationship with the number of living cells. The light absorption value measured at 450 nm using a microplate reader can indirectly reflect the number of living cells. Therefore, this method is used for the activity detection of some bioactive factors, large-scale anti-tumor drug screening, cell proliferation test, cytotoxicity test, and drug sensitivity test. This experiment is used to evaluate the cytotoxicity of the compounds. 2 μg of the chimeric plasmid LBD(hFXR)-pbind and 2 μg of Luciferase reporter plasmid were co-transfected into 2×10^6 HEK293 cells and inoculated in transparent 96-well plates. After 24 h, the culture medium was discarded and the test compound (diluted in serum-free culture medium, containing 1% DMSO) was added and incubated for 1 h, then FXR agonist GW4064 (300 nM) was added to agitate for 4 h. 10 μl detection reagent for CCK-8 was added to each well. After 2 hours, absorbance values at 450 nm and 650 nm (as reference wavelength) were detected with Flextation instrument.

SMILES	EC50 [1] [µM]	IC50 [2] [µM]	CCK-8 Assay (30 μM) [3]	CCK-8 Assay (100 μM) [3]
CC(C)[C@@H]1CC[C@]2(C(=O)NCC(=O)O)CC[C@]3(C)C(CCC4[C@@]5(C)CC[C@@H](O)C(C)(C)C5CC[C@]43C)C12 (stereo partly drawn) [Compound C1]	> 100	13.9	no	no
CC(=O)O[C@@H]1CC[C@@]2(C)C(CC[C@]3(C)C2CCC2C4[C@H](C(C)C)CC[C@]4(C(=O)NCC(=O)O)CC[C@]23C)C1(C)C (stereo partly drawn) [Compound C2]	> 100	6.31	no	no
CCC(=O)O[C@@H]1CC[C@@]2(C)C(CC[C@]3(C)C2CCC2C4[C@H](C(C)C)CC[C@]4(C(=O)NCC(=O)O)CC[C@]23C)C1(C)C (stereo partly drawn) [Compound C3]	> 100	3.89	no	no
CCCC(=O)O[C@@H]1CC[C@@]2(C)C(CC[C@]3(C)C2CCC2C4[C@H](C(C)C)CC[C@]4(C(=O)NCC(=O)O)CC[C@]23C)C1(C)C (stereo partly drawn) [Compound C4]	> 100	2.05	no	no
CCCC(=O)O[C@H]1CC[C@@]2(C)C(CC[C@]3(C)C2CCC2C4[C@H](C(C)C)CC[C@]4(C(=O)NCC(=O)O)CC[C@]23C)C1(C)C (stereo partly drawn) [Compound C12]	> 100	8.27	no	no
CC(C)[C@@H]1CC[C@]2(C(=O)NCC(=O)O)CC[C@]3(C)C(CCC4[C@@]5(C)CC[C@@H](OC(=O)c6cccnc6)C(C)(C)C5CC[C@]43C)C12 (stereo partly drawn) [Compound C16]	> 100	5.67	no	no
